Data taken from patent US20050204407A1, “Methods for identifying and developing compounds that interact with voltage-gated potassium channels of the kv4 family” (priority 2002, published 2005).

Experiments:
[1] = tested on: hKv4.3 expressing C. elegans strain UG 1598; test: Pharynx pumping rate of hKv4.3 expressing pha-1 strain UG 1598; format: in vivo
Procedure: The influence of 4-aminopyridine, a known general antagonist of voltage-gated potassium channel, on the pharynx pumping rate of the hKv4.3 expressing C. elegans strain UG 1598 (Example III) was determined as follows.
(§1) The nematodes were cultivated to L4 stage on an agar plate, and then kept overnight at 20° C. to reach the adult stage. The worms where then transferred to agar plates containing 0,5 mM 4-aminopyridine in DMSO. After 3 hours at 20° C., the number of pharynx “pumps” (contractions) per 30 seconds were determined visually using a stopwatch. As a comparison, the influence of 4-aminopyridine on an N2 background was also determined, in essentially the same manner.

N2 background = test: Pharynx pumping rate of N2 background (comparison); format: in vivo, C. elegans; settings: 0,5 mM, 3 hours at 20° C., FIG. 4
Procedure: as §1

[2] = tested on: hKv4.3 expressing C. elegans strain UG 1611; test: Pharynx pumping rate of hKv4.3 expressing exp-2 strain UG 1611; format: in vivo; design: Change observed (pharynx pumping rate): dose or concentration left out as unconfirmed
Procedure: The influence of 4-aminopyridine, a known general antagonist of voltage-gated potassium channel, on the pharynx pumping rate of the hKv4.3 expressing C. elegans strain UG 1611 (Example IV) was determined as follows.
The nematodes were cultivated to L4 stage on an agar plate, and then kept overnight at 20° C. to reach the adult stage. […] After 3 hours at 20° C., the number of pharynx “pumps” (contractions) per 30 seconds were determined visually using a stopwatch. As a comparison, the influence of 4-aminopyridine on the original exp-2 background was also determined, in essentially the same manner.

exp-2 background [3] = test: Pharynx pumping rate of original exp-2 background (comparison); format: in vivo, C. elegans; settings: 2 mM, 3 hours at 20° C., FIG. 5
Procedure: The nematodes were cultivated to L4 stage on an agar plate, and then kept overnight at 20° C. to reach the adult stage. The worms where then transferred to agar plates containing 2 mM 4-aminopyridine in DMSO. After 3 hours at 20° C., the number of pharynx “pumps” (contractions) per 30 seconds were determined visually using a stopwatch. As a comparison, the influence of 4-aminopyridine on the original exp-2 background was also determined, in essentially the same manner.

unc-119; hKv4.3 = test: Pharynx pumping rate of unc-119; hKv4.3 nematode; format: in vivo, C. elegans; settings: 500 mM, 3 hrs
[4] = tested on: hKv4.3 expressing C. elegans strain UG 1611; test: Drinking assay (uptake of Calcein AM) in hKv4.3 expressing exp-2 strain UG 1611; format: in vivo; settings: 0.3 mM, exp-2 without compound = 100%, UG 1611 without compound 114%
From the text: (§2) The hKv4.3 expressing C. elegans strain UG 1611 (Example IV) was investigated for drinking behaviour by determining the uptake over time of the fluorescent dye Calcein AM, essentially as described in Examples 2 and 3 of the International application PCT/IB00/00575 by Applicant, using 96 well plates containing 100 nematodes/well. As a comparison, the exp-2(sa26as1426)V background was used.
(§3) The influence of mM 4-aminopyridine, a known general antagonist of voltage-gated potassium channel, on drinking behaviour of the hKv4.3 expressing C. elegans strain UG 1611 (Example IV) was determined by measuring the uptake of the fluorescent dye Calcein AM with and without the presence of 0.3 mM 4aminopyridine, essentially as described in Examples 2 and 3 of the International application PCT/IB00/00575 by Applicant.

exp-2 background [5] = test: Drinking assay (uptake of Calcein AM) in exp-2 background; format: in vivo, C. elegans; settings: 0.3 mM, exp-2 without compound = 100%
From the text: as §2, §3

[6] = tested on: hKv4.3-expressing pha-1 strain UG 1598; test: Electropharyngeogram (EPG) of hKv4.3-expressing pha-1 strain UG 1598; format: in vivo, C. elegans; settings: 215 mM
Procedure: An electropharyngeogram of the human Kv4.3 expressing strain UG 1547 was recorded using an Axopatch-1D amplifier (Axon instruments), essentially as described by Raizen and Avery, supra, and is shown in FIG. 1. For comparison, reference is made to the EPG's for wild-type and exp-2 shown by Davis, Dent and Avery, Worm Breeders Gazette 14(4); 72 (1996), as well as the EPG's for wild-type shown in Raizen and Avery.
The influence of 4-aminopyridine on the EPG of a hKv4.3-expressing strain was studied using the hKv4.3-expressing pha-1 strain UG 1598 of Example III. As mentioned in Example VI, exposing this strain UG 1598 to 4-aminopyridine leads to a reduction of pharynx pumping.
The EPG's for UG 1598 (using 4 pharynxes) were recorded essentially as described in Example XII. The EPG's of UG 1598 without 4-aminopyridine were recorded during a period of 5 minutes, upon which the pharynxes were exposed to 215 mM 4-aminopyridine, and the EPG's were further recorded during a 5 minute period. The EPG's with and without the presence of 4-aminopyridine were then compared with each other and to the EPG for wild-type (see the references mentioned in Example XII).
The number of “Kv4.3-like” AP's and the number of “normal” AP's during the 5 minute recording period were determined/counted from the recorded EPG's.
After exposure to the 4-aminopyridine, the number of “Kv4.3-like” AP's and the number of “normal” AP's during the 5 minute recording period were again determined/counted from the EPG recording.

[7] = UG 1598, compared to UG1598 without compound

## Nc1ccncc1 [4-aminopyridine]
[1]; pha-1, hKv4.3, 0,5 mM, 3 hrs
  Change observed (pharynx pumping rate): increase in
[1]; strain UG 1598, 0,5 mM in agar plates, 3 hours at 20° C., FIG. 4
  Influence on pharynx pumping rate (pumps per 30 seconds): increases
[1]; strain UG 1598, refers to Example VI
  Pharynx pumping (as restated in Example XIII): reduction
N2 background
  Influence on pharynx pumping rate (pumps per 30 seconds): very little influence
[2]; exp-2, hKv4.3, 3 hrs
  Change observed (pharynx pumping rate): (small) decrease
[2]; strain UG 1611, 2 mM in agar plates, 3 hours at 20° C., FIG. 5
  Influence on pharynx pumping rate (pumps per 30 seconds): decreases
exp-2 background [3]
  Influence on pharynx pumping rate (pumps per 30 seconds): very little influence
unc-119; hKv4.3
  Change observed (pharynx pumping rate): increase in
[4]
  Uptake of fluorescent marker Calcein AM (drinking): 109%
exp-2 background [5]
  Uptake of fluorescent marker Calcein AM (drinking): 103%
[6]; UG 1598, 4 pharynxes, before adding 14+/−12, P<0.0161
  Number of "normal" APs during the 5 minute recording period: 64+/−9
[6]; [7]
  Relative number of "Kv4.3 like" AP's in EPG: significant decrease
  Relative number of "normal" AP's in EPG: corresponding increase
